Measurements published in ChEMBL document CHEMBL3585305, “Structure-Based Design and Optimization of Multitarget-Directed 2H-Chromen-2-one Derivatives as Potent Inhibitors of Monoamine Oxidase B and Cholinesterases” (J Med Chem, 2015).
Active and inactive are the calls of the source. The calls are words filed in the database; no cut-off is given here.

Legend:
[1] = target: T1, Amine oxidase [flavin-containing] A (Homo sapiens, UniProt P21397); assay: Inhibition of human recombinant MAO-A using kynuramine substrate at 10 uM by spectrophotometric assay
T1 sequence (P21397 whole entry): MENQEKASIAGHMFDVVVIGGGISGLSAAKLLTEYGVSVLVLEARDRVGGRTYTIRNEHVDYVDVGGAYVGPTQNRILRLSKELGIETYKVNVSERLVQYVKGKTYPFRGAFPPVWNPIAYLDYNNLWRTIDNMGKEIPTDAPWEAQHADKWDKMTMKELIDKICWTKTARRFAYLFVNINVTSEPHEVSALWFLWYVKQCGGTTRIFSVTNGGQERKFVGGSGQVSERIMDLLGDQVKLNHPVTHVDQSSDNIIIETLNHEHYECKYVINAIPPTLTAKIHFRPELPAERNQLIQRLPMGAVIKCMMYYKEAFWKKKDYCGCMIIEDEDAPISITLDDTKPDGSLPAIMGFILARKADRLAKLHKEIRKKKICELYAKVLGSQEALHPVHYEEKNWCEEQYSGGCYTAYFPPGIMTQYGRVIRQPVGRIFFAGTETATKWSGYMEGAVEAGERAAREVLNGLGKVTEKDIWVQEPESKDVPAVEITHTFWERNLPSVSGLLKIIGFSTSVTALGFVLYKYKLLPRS

[2] = target: T2, Amine oxidase [flavin-containing] B (Homo sapiens, UniProt P27338); assay: Inhibition of human recombinant MAO-B using kynuramine substrate at 10 uM by spectrophotometric assay
T2 sequence (P27338 whole entry): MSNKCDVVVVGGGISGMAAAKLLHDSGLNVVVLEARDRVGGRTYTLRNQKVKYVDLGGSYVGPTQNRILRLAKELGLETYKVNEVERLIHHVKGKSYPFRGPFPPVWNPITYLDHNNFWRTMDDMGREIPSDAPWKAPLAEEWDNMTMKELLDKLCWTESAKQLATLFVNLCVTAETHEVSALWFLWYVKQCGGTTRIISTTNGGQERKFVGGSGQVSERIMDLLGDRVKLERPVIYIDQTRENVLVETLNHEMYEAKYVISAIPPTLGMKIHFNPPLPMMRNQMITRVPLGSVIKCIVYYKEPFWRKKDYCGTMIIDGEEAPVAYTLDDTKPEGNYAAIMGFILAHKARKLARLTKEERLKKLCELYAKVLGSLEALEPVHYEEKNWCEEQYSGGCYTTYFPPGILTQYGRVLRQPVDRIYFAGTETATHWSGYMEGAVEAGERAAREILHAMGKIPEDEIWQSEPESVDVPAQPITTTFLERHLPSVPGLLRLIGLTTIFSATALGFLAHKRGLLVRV

[3] = target: T3, Amine oxidase [flavin-containing] A (Rattus norvegicus, UniProt P21396); assay: Inhibition of rat brain MAO-A using kynuramine substrate […] at 10 uM by spectrophotometric assay
T3 sequence (P21396 whole entry): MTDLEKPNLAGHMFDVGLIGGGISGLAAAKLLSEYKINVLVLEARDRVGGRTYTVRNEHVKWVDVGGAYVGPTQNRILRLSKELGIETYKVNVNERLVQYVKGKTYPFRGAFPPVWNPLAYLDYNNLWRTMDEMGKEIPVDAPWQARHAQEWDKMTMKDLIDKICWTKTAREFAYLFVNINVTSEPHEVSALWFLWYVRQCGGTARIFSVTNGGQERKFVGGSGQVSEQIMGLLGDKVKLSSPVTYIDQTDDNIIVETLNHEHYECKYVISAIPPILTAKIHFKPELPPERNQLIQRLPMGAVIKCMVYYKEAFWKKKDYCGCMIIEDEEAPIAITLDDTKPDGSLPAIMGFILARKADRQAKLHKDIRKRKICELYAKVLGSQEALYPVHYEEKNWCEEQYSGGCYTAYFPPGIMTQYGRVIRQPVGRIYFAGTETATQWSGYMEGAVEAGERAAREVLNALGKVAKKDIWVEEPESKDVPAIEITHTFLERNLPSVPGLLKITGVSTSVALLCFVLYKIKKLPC

[4] = target: T4, Amine oxidase [flavin-containing] B (Rattus norvegicus, UniProt P19643); assay: Inhibition of rat brain MAO-B using kynuramine substrate […] by spectrophotometric assay
T4 sequence (P19643 whole entry): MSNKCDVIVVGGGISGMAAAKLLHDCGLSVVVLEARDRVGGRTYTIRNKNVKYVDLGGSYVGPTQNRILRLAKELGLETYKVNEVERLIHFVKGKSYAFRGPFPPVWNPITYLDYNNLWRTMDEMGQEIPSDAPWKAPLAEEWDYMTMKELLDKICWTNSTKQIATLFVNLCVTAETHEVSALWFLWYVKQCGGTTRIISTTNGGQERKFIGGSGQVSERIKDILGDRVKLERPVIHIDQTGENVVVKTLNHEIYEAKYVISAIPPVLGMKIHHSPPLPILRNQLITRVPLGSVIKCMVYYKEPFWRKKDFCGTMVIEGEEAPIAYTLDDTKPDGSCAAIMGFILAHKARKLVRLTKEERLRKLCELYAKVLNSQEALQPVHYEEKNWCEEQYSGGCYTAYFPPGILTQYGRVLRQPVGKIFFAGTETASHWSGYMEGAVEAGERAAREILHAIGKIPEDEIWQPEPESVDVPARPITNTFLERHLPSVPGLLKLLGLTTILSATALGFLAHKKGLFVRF

[5] = target: T5, Acetylcholinesterase (Electrophorus electricus, UniProt O42275); assay: Inhibition of electric eel AChE by spectrophotometric Ellman's method
T5 sequence (O42275 whole entry): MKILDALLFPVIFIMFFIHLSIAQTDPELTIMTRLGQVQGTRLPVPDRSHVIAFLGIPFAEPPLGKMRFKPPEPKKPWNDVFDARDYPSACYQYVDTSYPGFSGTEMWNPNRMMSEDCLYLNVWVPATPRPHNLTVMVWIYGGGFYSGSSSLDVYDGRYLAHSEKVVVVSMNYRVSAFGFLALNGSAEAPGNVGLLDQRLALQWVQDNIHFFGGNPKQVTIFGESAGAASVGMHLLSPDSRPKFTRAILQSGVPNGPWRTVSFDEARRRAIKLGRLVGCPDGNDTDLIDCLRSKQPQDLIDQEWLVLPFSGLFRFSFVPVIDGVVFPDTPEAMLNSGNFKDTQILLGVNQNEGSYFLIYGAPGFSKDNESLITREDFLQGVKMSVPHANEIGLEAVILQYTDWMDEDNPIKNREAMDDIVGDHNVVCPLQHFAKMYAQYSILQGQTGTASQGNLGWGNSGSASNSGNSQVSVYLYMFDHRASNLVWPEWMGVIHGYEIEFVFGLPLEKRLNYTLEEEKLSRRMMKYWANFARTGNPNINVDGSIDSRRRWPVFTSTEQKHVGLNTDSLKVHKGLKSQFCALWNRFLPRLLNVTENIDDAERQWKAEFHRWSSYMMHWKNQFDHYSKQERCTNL

[6] = target: Cholinesterase (Equus caballus, UniProt P81908); assay: Inhibition of equine serum BuChE by spectrophotometric Ellman's method
Chain of Cholinesterase (Equus caballus, UniProt P81908) (P81908 whole entry): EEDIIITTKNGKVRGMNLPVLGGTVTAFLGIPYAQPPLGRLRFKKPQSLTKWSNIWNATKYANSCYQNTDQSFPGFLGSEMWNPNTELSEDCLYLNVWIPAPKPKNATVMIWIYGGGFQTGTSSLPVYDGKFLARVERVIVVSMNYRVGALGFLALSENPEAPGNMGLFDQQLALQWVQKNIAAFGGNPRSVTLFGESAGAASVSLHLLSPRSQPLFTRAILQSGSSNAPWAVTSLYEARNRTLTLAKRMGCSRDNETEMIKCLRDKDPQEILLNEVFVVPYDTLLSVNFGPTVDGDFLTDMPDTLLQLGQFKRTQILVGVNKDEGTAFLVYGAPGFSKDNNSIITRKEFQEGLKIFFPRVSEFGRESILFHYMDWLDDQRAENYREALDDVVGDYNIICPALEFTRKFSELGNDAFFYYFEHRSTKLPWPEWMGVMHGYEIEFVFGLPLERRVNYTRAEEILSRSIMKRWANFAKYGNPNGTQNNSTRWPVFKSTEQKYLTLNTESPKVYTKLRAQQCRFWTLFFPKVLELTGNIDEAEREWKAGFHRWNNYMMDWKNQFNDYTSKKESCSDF

[7] = target: T1, Amine oxidase [flavin-containing] A; assay: Inhibition of human recombinant MAO-A using kynuramine substrate by spectrophotometric assay
[8] = target: T2, Amine oxidase [flavin-containing] B
Description: Inhibition of human recombinant MAO-B using kynuramine substrate by spectrophotometric assay

[9] = target: Acetylcholinesterase (Homo sapiens, UniProt P22303); assay: Inhibition of human recombinant AChE by spectrophotometric Ellman's method
Chain of Acetylcholinesterase (Homo sapiens, UniProt P22303) (P22303 whole entry): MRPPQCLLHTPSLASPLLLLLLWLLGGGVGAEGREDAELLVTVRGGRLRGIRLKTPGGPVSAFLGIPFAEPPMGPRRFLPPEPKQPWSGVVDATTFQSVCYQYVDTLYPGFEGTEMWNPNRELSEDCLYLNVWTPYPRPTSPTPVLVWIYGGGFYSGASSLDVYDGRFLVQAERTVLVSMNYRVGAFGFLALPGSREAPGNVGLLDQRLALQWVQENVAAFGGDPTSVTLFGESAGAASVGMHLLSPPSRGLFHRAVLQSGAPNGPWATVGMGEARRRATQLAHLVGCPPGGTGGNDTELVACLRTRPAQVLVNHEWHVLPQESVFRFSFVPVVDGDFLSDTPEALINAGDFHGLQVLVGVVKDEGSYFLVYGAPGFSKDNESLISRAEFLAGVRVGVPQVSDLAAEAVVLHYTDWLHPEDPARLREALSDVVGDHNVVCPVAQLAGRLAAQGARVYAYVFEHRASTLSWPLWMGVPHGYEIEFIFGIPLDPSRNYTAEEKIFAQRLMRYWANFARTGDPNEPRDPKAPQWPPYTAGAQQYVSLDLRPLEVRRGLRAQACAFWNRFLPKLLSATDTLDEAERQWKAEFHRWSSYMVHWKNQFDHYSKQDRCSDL

[10] = target: T6, Cholinesterase (Homo sapiens, UniProt P06276); assay: Inhibition of human serum BuChE at 10 uM by spectrophotometric Ellman's method
T6 sequence (P06276 whole entry): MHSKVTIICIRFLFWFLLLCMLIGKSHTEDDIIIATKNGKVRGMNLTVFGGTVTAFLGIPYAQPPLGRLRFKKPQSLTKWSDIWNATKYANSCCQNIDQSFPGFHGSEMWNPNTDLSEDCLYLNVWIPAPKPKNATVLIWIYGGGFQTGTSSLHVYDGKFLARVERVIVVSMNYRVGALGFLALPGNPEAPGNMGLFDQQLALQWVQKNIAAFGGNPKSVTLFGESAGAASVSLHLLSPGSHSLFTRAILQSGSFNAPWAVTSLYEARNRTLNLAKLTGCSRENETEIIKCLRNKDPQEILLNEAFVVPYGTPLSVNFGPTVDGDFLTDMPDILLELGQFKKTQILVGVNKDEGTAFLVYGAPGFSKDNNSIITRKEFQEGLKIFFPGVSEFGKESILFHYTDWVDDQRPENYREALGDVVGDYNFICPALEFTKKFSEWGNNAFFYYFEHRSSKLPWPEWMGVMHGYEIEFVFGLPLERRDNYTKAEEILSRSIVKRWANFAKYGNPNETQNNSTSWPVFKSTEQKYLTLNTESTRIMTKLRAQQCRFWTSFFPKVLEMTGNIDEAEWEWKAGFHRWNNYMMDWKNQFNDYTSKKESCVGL

[11] = tested on: MDR1; assay: Apparent permeability from apical to basolateral side in MDCK2 cells expressing MDR1 at 200 ug/ml by UV-visible spectroscopy; format: ADME, cell-based, Canis lupus familiaris, MDCK-II; details: dog, MDCK-MDR1
[12] = tested on: MDR1; assay: Apparent permeability from basolateral to apical side in MDCK2 cells expressing MDR1 at 200 ug/ml by UV-visible spectroscopy; format: ADME, cell-based, Canis lupus familiaris, MDCK-II; details: dog, MDCK-MDR1
[13] = tested on: MDR1; assay: Efflux ratio of apparent permeability from basolateral to apical side to apical to basolateral side in MDCK2 cells expressing MDR1 at 200 ug/ml by UV-visible spectroscopy; format: ADME, cell-based, Canis lupus familiaris, MDCK-II; details: dog, MDCK-MDR1
[14] = tested on: SH-SY5Y; assay: Neuroprotective activity in human SH-SY5Y cells assessed as inhibition H2O2-induced reduction of cell survival at 1 uM after 24 hrs by MTT assay; format: functional, cell-based
[15] = tested on: SH-SY5Y; assay: Neuroprotective activity in human SH-SY5Y cells assessed as inhibition H2O2-induced reduction of cell survival at 10 uM after 24 hrs by MTT assay; format: functional, cell-based
[16] = target: T3, Amine oxidase [flavin-containing] A; assay: Inhibition of rat brain MAO-A using kynuramine substrate […] by spectrophotometric assay
[17] = species: Rattus norvegicus; assay: Selectivity index, ratio of IC50 for rat brain MAO-A to IC50 for rat brain MAO-B
[18] = target: T4, Amine oxidase [flavin-containing] B; assay: Inhibition of rat brain MAO-B using kynuramine substrate […] at 10 uM by spectrophotometric assay
[19] = target: T1, Amine oxidase [flavin-containing] A; assay: Inhibition of human recombinant MAO-A using kynuramine substrate at 4 uM by spectrophotometric assay
[20] = target: T6, Cholinesterase; assay: Inhibition of human serum BuChE by spectrophotometric Ellman's method
[21] = target: T5, Acetylcholinesterase; assay: Mixed type inhibition of electric eel AChE by Lineweaver-Burk plot

SMILES	inhibition at 10 µM [3] [%]	IC50 [4] [nM]	IC50 [5] [nM]	IC50 [6] [nM]	IC50 [7] [nM]	IC50 [8] [nM]	IC50 [9] [nM]	IC50 [16] [nM]	other results
COc1cc2c(cc1OC)C(=O)C(CC1CCN(Cc3ccccc3)CC1)C2 (configuration not stated) [DONEPEZIL]	–	–	–	–	–	–	–	–	inhibition at 10 µM [1]: 0%; inhibition at 10 µM [2]: 0%
Cc1c(C)c2ccc(OCc3ccc(CN(C)Cc4ccccc4)cc3)cc2oc1=O	0	1200	100	690	4300	53	450	–	inhibition [10]: 46%
CN(Cc1ccccc1)Cc1ccc(COc2ccc3c(CO)cc(=O)oc3c2)cc1.Cl	0	–	–	–	–	–	–	–	Papp A→B at 200 ug/ml [11]: 19.1 ×10⁻⁶ cm/s; Papp B→A at 200 ug/ml [12]: 33.8 ×10⁻⁶ cm/s; efflux ratio at 200 ug/ml [13]: 1.77; Activity [14]: Active; Activity [15]: Active
CCN(CCCCCCOc1ccc2c(C)c(C)c(=O)oc2c1)Cc1ccccc1	–	720	320	490	115	18	440	2100	Ratio IC50 [17]: 3
CN(Cc1ccccc1)Cc1ccc(COc2ccc3ccc(=O)[nH]c3c2)cc1	10	–	490	1700	–	4500	1500	–	inhibition at 10 µM [18]: 29%; inhibition at 4 µM [19]: 14%
Cc1c(C)c2ccc(OCCCCCCN(C)Cc3ccccc3)cc2oc1=O	–	1700	95	670	191	321	340	510	IC50 [20]: 950 nM; Ratio IC50 [17]: 0.3; Ki [21]: 80 nM
Cc1c(C)c2ccc(OCCCCCNCc3ccccc3)cc2oc1=O	–	500	940	1800	390	29	300	2200	IC50 [20]: 950 nM
CN(Cc1ccc(COc2ccc3c(CO)cc(=O)oc3c2)cc1)Cc1cccc(Cl)c1	0	240	250	630	13000	24	330	–	inhibition [10]: 14%
